Measured values taken from patent US11318138B2, “Methods for treating B cell proliferative disorders” (priority 2013, dated 2022).

Tests used:
[1] = tested on: PIK3IP1 mRNA in JEKO-1 cells; assay: q-RT-PCR analysis of PIK3IP1 mRNA expression in MCL cells; assay type: cell-based; settings: JEKO-1, PD (30 h) alone or Ibrutinib (24 h) alone
[2] = tested on: PIK3IP1 mRNA in MAVER-1 cells; assay: as above; assay type: cell-based; settings: MAVER-1, PD (30 h) alone or Ibrutinib (24 h) alone
recurrent MCL patients = settings: cited from earlier work
MINO cells = assay: MCL cell line culture with Ibrutinib and/or PD 0332991: viability, cell cycle, apoptosis, live cells; assay type: cell-based
SP53 cells = settings: SP53, Ibrutinib 72 h, at the G1-S transition
[3] = tested on: CCL3, CCL4, TNF and IL10 expression in MCL cells; settings: MCL cells ex vivo; cited from earlier work
[4] = tested on: chicken lymphoma DL40 cell line; settings: model chicken lymphoma DL40 cell line; cited from earlier work
JEKO-1 cells = assay: MCL cell line culture with Ibrutinib and/or PD 0332991: viability, cell cycle, apoptosis, live cells; assay type: cell-based; settings: JEKO-1, Ibrutinib 72 h, Trypan blue exclusion and ToPro-3 FACS
MAVER-1 cells = assay: as above; assay type: cell-based; settings: MAVER-1, Ibrutinib 72 h, Trypan blue exclusion and ToPro-3 FACS
MCL patient (Pt 7) = settings: Pt 7, Ibrutinib 560 mg daily

SMILES | PIK3IP1 mRNA induction, single agent [1] | PIK3IP1 mRNA induction, single agent [2] | cell cycle effect in patients (recurrent MCL patients) | clinical response (recurrent MCL patients) | toxicity to cells (MINO cells; Ibrutinib 72 h) | S phase entry (BrdU pulsing/PI analysis) (MINO cells; Ibrutinib 72 h (1 μM)) | apoptosis (accumulation of sub 2N cells, reduction of S phase cells) (SP53 cells) | expression of CCL3, CCL4, TNF and IL10 [3] | effect of C481S BTK mutation on ibrutinib sensitivity [4] | sensitivity of cells to ibrutinib (viability, DNA fragmentation) (JEKO-1 cells) | sensitivity of cells to ibrutinib (viability, DNA fragmentation) (MAVER-1 cells) | duration of response before progression (MCL patient (Pt 7)) [months]
CC(=O)c1c(C)c2cnc(Nc3ccc(N4CCNCC4)cn3)nc2n(C2CCCC2)c1=O [PD 0332991] | modestly induced | modestly induced | prolonged early G1 arrest | durable clinical response | – | – | – | – | – | – | – | –
C=CC(=O)N1CCC[C@@H](n2nc(-c3ccc(Oc4ccccc4)cc3)c3c(N)ncnc32)C1 [Ibrutinib, (R)-1-(3-(4-amino-3-(4-phenoxyphenyl)-1H-pyrazolo[3,4-d]pyrimidin-1-yl)piperidin-1-yl)prop-2-en-1-one] | modestly induced | modestly induced | – | – | not toxic | moderately inhibiting | potently induced apoptosis | suppress | conferred resistance | completely refractory | completely refractory | 14
